Measurements from patent US6019988A, “Methods and compositions for enhancing skin permeation of drugs using permeation enhancers, when drugs and/or permeation enhancers are unstable in combination during long-term storage” (priority 1996, dated 2000).

Legend:
[1] = Plasma concentration after topical application to hairless rats; type: in vivo, hairless rat
[2] = Solubility in water- or oil-based formulations; type: physicochemical
[3] = not told
[4] = Stability in pharmaceutical solvents / excipients at 30 and 40 °C

CC(=C/C(=O)O)/C(=C/c1ccc2cc3c(cc2c1)C(C)(C)CCC3(C)C)c1cccc(C(=O)O)c1 [BMS-188184-02, (2Z,4Z)-3-methyl-4-(3-carboxyphenyl)-5-[(1,2,3,4-tetrahydro-1,1,4,4-tetramethyl)-6-anthracenyl]-2,4-pentadienoic acid]
concentration of drug in plasma ([1]; by 6 hours after topical application): below the limit of detection
Cmax ([1]; rat, plasma, topical or ocular, dual system 2% ointment + SLS cream, single topical dose, read-out: peak plasma concentrations): 2400 ng/mL
Tmax ([1]; rat, plasma, topical or ocular, dual system 2% ointment + SLS cream, single topical dose, read-out: time of peak plasma concentrations): 2 h
solubility in water-based or oil-based formulations [2]: soluble

CC(=C/C(=O)O)/C(=C/c1ccc2cc3c(cc2c1)C(C)(C)CCC3(C)C)c1cccc(C(=O)O)c1 [BMS-188184, (2Z,4Z)-3-methyl-4-(3-carboxyphenyl)-5-[(1,2,3,4-tetrahydro-1,1,4,4-tetramethyl)-6-anthracenyl]-2,4-pentadienoic acid]
long-term (storage) stability in formulations / with permeation enhancers [3]: stable in GEAHLENE base containing mineral oil and in petrolatum ointment containing fatty acid esters
shelf life in these solvents ([4]; 30° C., propylene glycol, Transcutol, ethanol SD-40, PEG-8, water): less than 10 days
stability in various pharmaceutical solvents ([4]; propylene glycol, Transcutol, ethanol SD-40, PEG-8, water, 30° C. and 40° C.): poor

CC(=C/C(=O)O)/C(=C/c1ccc2cc3c(cc2c1)C(C)(C)CCC3(C)C)c1cccc(C(=O)O)c1 [BMS-188184-05]
remaining at 240 h ([4]; pharmaceutical solvents): < 90%

CC(=C/C(=O)O)/C(=C/c1ccc2cc3c(cc2c1)C(C)(C)CCC3(C)C)c1cccc(C(=O)O)c1 [BMS-188184-01, (2Z,4Z)-3-methyl-4-(3-carboxyphenyl)-5-[(1,2,3,4-tetrahydro-1,1,4,4-tetramethyl)-6-anthracenyl]-2,4-pentadienoic acid]
solubility in water-based or oil-based formulations [2]: virtually insoluble
